“Also recorded” adds a separate entry of the source.
Assays:
ERK1/2 = ERK1/2 phosphorylation in primary neurons treated with okadaic acid; type: cell-based, mouse; settings: okadaic acid 10-100 nM, 30 min
Protocol: FIGS. 11A and 11B are images showing the inhibition of PP2A induces ERK1/2 phosphorylation. Primary neurons were treated with the PP2A inhibitor okadaic acid (OA, 10-100 nM) for 30 min and were processed for ERK1/2 analysis. (A) Representative Western blots showing phosphorylation of ERK1/2. (B) Quantitative analysis of pERK1/2 after normalization with total ERK1/2. Data are expressed as mean±SEM. *P<0.05; **P<0.01.
Protein was fractionated by 10% SDS/PAGE, transferred to PVDF membrane, and then blocked with 5% skim milk for 1 h at room temperature. […] The protein bands were detected with the enhanced chemiluminescence reagents (Thermo Scientific). Band intensity was measured by Multi-Gauge V3 software (Fuji Photo Film).

PP2A = PP2A activity (phosphatase ELISA) in rat brain slices; type: cell-based; settings: 30 min pretreatment, BMAA 1 mM 2 h, rat brain slices
Protocol: (§1) Male Wistar rats (Charles River Laboratories), 2-3 months old, were anesthetized by i.p. injection with 50 mg/kg Nembutal. The animals were decapitated when deeply anesthetized. The brains were removed immediately and cooled in ice-cold (4° C.) oxygenated artificial cerebrospinal fluid (aCSF) consisting of 126 mM NaCl, 3.5 mM KCl, 1.2 mM NaH2PO4, 1.3 mM MgCl2, 2 mM CaCl2, 11 mM D(+) glucose, and 25 mM NaHCO3 (pH 7.4) for 7-8 min. Each brain then was divided sagittally, and 400-μm-thick coronal slices were made with a Camden Vibraslicer (WP, Inc.). The slices were transferred into a chamber containing the oxygenated aCSF and were incubated at 33° C. for 2 h in the presence or absence of 1 mM, β-N ? methylamino-L-alanine (BMAA) dissolved in 10 mM NaHCO3 (Sigma). The oxygenation of the aCSF was carried out by bubbling the solution with a mixture of 95% O2 and 5% CO2 during the entire procedure. At the end of incubation, the brain slices were homogenized with homogenizing buffer [50 mM Tris·HCl (pH 7.4), 8.5% (wt/vol) sucrose, 2 mM EDTA, 2 mM EGTA, 10 mM (3-mercaptoethanol, 5 mM benzamidine, 0.5 mM 4-(2-Aminoethyl) benzenesulfonyl fluoride hydrochloride (AEBSF), 4 μg/mL pepstatin A, and 10 μg/mL each of aprotinin and leupepin] at a ratio of 9.0 mL buffer/1.0 g tissue slices. The homogenates were divided into two parts. One part was centrifuged at 16,000×g for 10 min, and the resulting supernatant was used to assay protein phosphatase 2A (PP2A) activity. Into the other half, an equal volume of phosphatase-inhibitor mixture (20 mM 3-glycerophosphate, 2 mM Na3VO4, and 100 mM NaF) was added immediately, and the samples were used for Western blots.

tau = assay: Tau phosphorylation (Western blots) in metabolically active rat brain slices; type: cell-based; settings: rat brain slices; for BMAA-induced tau hyperphosphorylation at the 12E8 site: 30 min preincubation
Protocol: as §1
Protein was fractionated by 10% SDS/PAGE, transferred to PVDF membrane, and then blocked with 5% skim milk for 1 h at room temperature. The membrane was probed with anti-IPP2A (5G6, 1:1, 500) (7), anti-I2P2A (10E7, 1:1, 600) (7), anti-tau ˜92e; 1:5,000) (8), anti-tau (R134d; 1:5 000) (9), anti-tau pSer^262/^356 (12E8; 1:500) (10, anti-tau pSer^199, anti-tau pThr^205, anti-tau pThr^212, and pSer^396 (1:1,000) (Biosource), anti-GAPDH (1:2,000) (Santa Cruz Biotechnology), anti-PP2Ac (1:10 000) (BD Transduction Lab), anti pY^307-PP2A and anti-DML^309-PP2A (1:1,000) (Millipore), anti-GSK-3(α/β), anti-pS^9-GSK-3 β, anti-ERK1/2, anti-pT^202/Y^204-ERK1/2, anti-MEK1/2, anti-p9^17/221-MEK1/2, anti-CAMKII, anti-pT^286-CAMKII, anti-p70 S6 kinase, anti-pT^389-p70 S6 kinase, anti-SAPK/JNK, and anti-pT^183/Y^185-SAPK/JNK (1:1,000) (Cell Signaling Technology). The membrane then was incubated with HRP-conjugated secondary antibody (Jackson ImmunoResearch). The protein bands were detected with the enhanced chemiluminescence reagents (Thermo Scientific). Band intensity was measured by Multi-Gauge V3 software (Fuji Photo Film).

mGluR5-PP2A complex = biological target: T1, mGluR5-PP2A complex (Mus musculus, UniProt Q3UVX5); assay: Coimmunoprecipitation of PP2Ac with mGluR5 in primary neurons; type: cell-based
T1 construct: endogenous in cells; host or cells: mouse primary hippocampal neuronal cultures
Protocol: Mouse hippocampal cell proteins were prepared with low-stringency lysis buffer [50 mM Hepes (pH 7.4), 10% (vol/vol) glycerol, 1.5 mM MgCl2, 5 mM NaF, 1 mM Na3VO4, 1 mM EDTA, 1 mM EGTA, 1% Nonidet P-40, 5 mM AEBSF, 10 μg/mL aprotinin, leupeptin, pepstatin] and were homogenized by several freeze-thaw cycles followed by water bath sonication. The homogenate was centrifuged at 14,000×g at 4° C. for 15 min. For transfection experiments with vector (DsRed) and with DsRed-PP2A catalytic subunit (PP2Ac), primary neurons were processed in a similar manner. The supernatants then were used for immunoprecipitation with mouse anti-PP2A (1D6; Millipore) followed by incubation with protein G-Sepharose (Thermo Scientific). The Western blots of immunoprecipitates were probed with rabbit anti-mGluR5 (Millipore) and rabbit anti-PP2Ac [R123d] (FIG. 55).

T1 sequence (Q3UVX5 19-1203, one chain of several): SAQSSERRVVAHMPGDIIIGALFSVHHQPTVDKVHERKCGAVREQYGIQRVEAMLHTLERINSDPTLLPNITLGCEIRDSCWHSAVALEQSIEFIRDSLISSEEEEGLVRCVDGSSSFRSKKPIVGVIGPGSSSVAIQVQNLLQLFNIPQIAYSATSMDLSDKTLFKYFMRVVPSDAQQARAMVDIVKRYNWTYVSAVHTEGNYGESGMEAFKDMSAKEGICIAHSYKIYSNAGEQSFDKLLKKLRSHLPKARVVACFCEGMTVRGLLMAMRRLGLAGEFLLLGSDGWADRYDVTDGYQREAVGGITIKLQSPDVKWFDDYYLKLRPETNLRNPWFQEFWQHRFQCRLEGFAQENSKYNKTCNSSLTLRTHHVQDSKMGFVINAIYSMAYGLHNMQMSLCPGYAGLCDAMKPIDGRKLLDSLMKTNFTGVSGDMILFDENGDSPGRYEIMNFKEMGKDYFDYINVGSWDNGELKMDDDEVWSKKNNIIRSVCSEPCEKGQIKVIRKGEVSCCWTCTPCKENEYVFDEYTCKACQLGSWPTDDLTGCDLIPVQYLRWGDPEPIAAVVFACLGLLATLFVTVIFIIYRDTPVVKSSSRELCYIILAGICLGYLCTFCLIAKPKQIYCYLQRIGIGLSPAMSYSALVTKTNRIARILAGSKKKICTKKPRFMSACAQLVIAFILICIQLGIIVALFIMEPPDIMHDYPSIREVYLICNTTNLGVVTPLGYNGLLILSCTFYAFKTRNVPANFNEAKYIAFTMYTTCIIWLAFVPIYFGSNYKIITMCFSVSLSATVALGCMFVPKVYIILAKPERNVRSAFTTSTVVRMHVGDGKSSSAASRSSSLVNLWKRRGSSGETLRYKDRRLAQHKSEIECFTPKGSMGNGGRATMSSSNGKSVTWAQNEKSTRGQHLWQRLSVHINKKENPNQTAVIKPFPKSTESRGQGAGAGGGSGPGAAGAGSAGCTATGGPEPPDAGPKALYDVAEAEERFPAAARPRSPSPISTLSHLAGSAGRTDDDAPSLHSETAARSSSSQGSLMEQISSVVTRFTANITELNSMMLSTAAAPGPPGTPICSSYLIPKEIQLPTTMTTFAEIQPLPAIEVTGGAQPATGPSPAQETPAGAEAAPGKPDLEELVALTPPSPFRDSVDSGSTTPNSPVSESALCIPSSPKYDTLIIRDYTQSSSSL

C=C1[C@@H](O)[C@@H]2O[C@]3(CC[C@H](/C=C/[C@@H](C)[C@@H]4CC(C)=C[C@@]5(O[C@H](C[C@@](C)(O)C(=O)O)CC[C@H]5O)O4)O3)CC[C@H]2O[C@@H]1[C@@H](O)C[C@H](C)[C@H]1O[C@@]2(CCCCO2)CC[C@H]1C [okadaic acid]
ERK1/2 phosphorylation (ERK1/2): up-regulates

Cc1cccc(C#Cc2ccccc2)n1 [MPEP, 2-methyl-6-(phenylethynyl)pyridine]
BMAA induced decrease in PP2A activity blocked by pretreatment (PP2A; MPEP 50 μM): blocked completely | BMAA-induced tau hyperphosphorylation at the 12E8 site (tau; 50 μM MPEP, BMAA 1 mM 2 h): significantly blocked | BMAA-induced dissociation of PP2A from mGluR5 (mGluR5-PP2A complex): completely blocked

CCCCCCCCCCCCC/C=C/[C@@H](O)[C@@H](N)CO [DES, D-Erythro-S]
BMAA-induced tau hyperphosphorylation (tau; DES 15 nM pretreatment, BMAA 1 mM 2 h): blocked; also recorded: entirely prevented

CC(C)(C)n1nc(-c2ccc(Cl)cc2)c2c(N)ncnc21 [PP2]
BMAA-induced tau hyperphosphorylation (tau; PP2 10 μM, 30 min before BMAA): blocked; also recorded: significantly attenuated

N#Cc1cc2c(cc1[N+](=O)[O-])=NC(=O)C(=O)N=2 [CNQX, 6-cyano-7-nitroquinoxaline-2,3-dione]
BMAA induced decrease in PP2A activity blocked by pretreatment (PP2A; CNQX 20 μM): not | BMAA-induced tau hyperphosphorylation at the 12E8 site (tau; CNQX 20 μM alone, BMAA 1 mM 2 h): no significant change
